Test results published in PubChem BioAssay AID330 (DTP/NCI, 2004).
Values joined by “and” are separate entries in the source; they are usually repeats but may differ in a detail not shown here. Equal entries are not always repeated. Inconclusive results and toxic doses are left out.

System: P388 leukemia ip, CD2F1 mice, survival T/C
Assay: NCI In Vivo Anticancer Drug Screen. Data for tumor model P388 Leukemia (intraperitoneal) in CD2F1 (CDF1) mice
Conditions: endpoint: median survival time, higher = longer survival
Method in brief: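 Mice carrying the transplanted tumor received test compound or vehicle. Survival was recorded in each group, and the value is the treated-group measurement divided by that of the vehicle-treated control group.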

[1] = dose: 60.0 mg/kg/injection, schedule: Q01DX005 (ip), vehicle: saline with Tween-80
[2] = dose: 120.0 mg/kg/injection, schedule: Q01DX005 (ip), vehicle: saline with Tween-80
[3] = dose: 240.0 mg/kg/injection, schedule: Q01DX005 (ip), vehicle: saline with Tween-80
[4] = dose: 50.0 mg/kg/injection, schedule: Q01DX005 (ip), vehicle: Klucel (hydroxypropylcellulose) (HPC)
[5] = dose: 100.0 mg/kg/injection, schedule: Q01DX005 (ip), vehicle: Klucel (hydroxypropylcellulose) (HPC)
[6] = dose: 200.0 mg/kg/injection, schedule: Q01DX005 (ip), vehicle: Klucel (hydroxypropylcellulose) (HPC)
[7] = dose: 100.0 mg/kg/injection, schedule: Q01DX009 (ip), vehicle: saline with Tween-80
[8] = dose: 200.0 mg/kg/injection, schedule: Q01DX009 (ip), vehicle: saline with Tween-80

In the case of N#CC(OC(=O)c1ccccc1)C(OC(=O)c1ccccc1)C(OC(=O)c1ccccc1)C(COC(=O)c1ccccc1)OC(=O)c1ccccc1 (centres undefined), the T/C (dose: 6.25 mg/kg/injection, schedule: Q01DX005 (ip), vehicle: saline with Tween-80) is reported as 97 % of control, the T/C (dose: 12.5 mg/kg/injection, schedule: Q01DX005 (ip), vehicle: saline with Tween-80) is reported as 95 % of control and the T/C (dose: 25.0 mg/kg/injection, schedule: Q01DX005 (ip), vehicle: saline with Tween-80) is reported as 86 % of control.

For O=C1c2ccccc2C(=O)N1Cc1ccc(CCl)s1, the T/C (dose: 15.0 mg/kg/injection, schedule: Q01DX005 (ip), vehicle: saline with Tween-80) was 101 % of control, the T/C (dose: 30.0 mg/kg/injection, schedule: Q01DX005 (ip), vehicle: saline with Tween-80) was 102 % of control and the T/C [1] was 100 % of control and 105 % of control. For the same compound, the T/C [2] was 119 % of control and the T/C [3] was 112 % of control.

For COc1ccc2nc(C#N)sc2c1, the T/C [1] was 86 % of control, the T/C [2] was 92 % of control and the T/C [3] was 100 % of control.

CC(C)(C)OC(=O)NC(Cc1ccc(O)cc1)C(=O)O (centres undefined) was tested, and the T/C [4] was 102 % of control, the T/C [5] was 103 % of control and the T/C [6] was 96 % of control.

COc1cc2cc[n+]3c(C)c4ccc(OC)c(OC)c4cc3c2cc1OC (tested in a mixture with another compound) was tested, and the T/C (dose: 20.0 mg/kg/injection, schedule: Q01DX009 (ip), vehicle: saline) was 150 % of control and the T/C (dose: 40.0 mg/kg/injection, schedule: Q01DX009 (ip), vehicle: saline) was 154 % of control and 166 % of control.

For CCC(C)C(=O)OC1C(=O)OC2CC3C(C)=CC(=O)C(O)C3(C)C3C4(O)OCC23C1C(C)C4O (centres undefined), the T/C (dose: 2.0 mg/kg/injection, schedule: Q01DX009 (ip), vehicle: saline) was 96 % of control.

For NC(=O)c1cc2c3ccccc3ncc2c2ccccc12, the T/C (dose: 100.0 mg/kg/injection, schedule: Q01DX001 (ip), vehicle: saline with Tween-80) was 100 % of control, the T/C (dose: 200.0 mg/kg/injection, schedule: Q01DX001 (ip), vehicle: saline with Tween-80) was 100 % of control and the T/C (dose: 400.0 mg/kg/injection, schedule: Q01DX001 (ip), vehicle: saline with Tween-80) was 100 % of control.

Cc1nc2[nH]c(=S)[nH]c(=O)c2nc1C was tested, and the T/C [7] was 104 % of control, the T/C (dose: 100.0 mg/kg/injection, schedule: Q04DX003 (ip), vehicle: saline with Tween-80) was 95 % of control and the T/C [8] was 100 % of control. The T/C (dose: 200.0 mg/kg/injection, schedule: Q04DX003 (ip), vehicle: saline with Tween-80) was 95 % of control, the T/C (dose: 400.0 mg/kg/injection, schedule: Q01DX009 (ip), vehicle: saline with Tween-80) was 95 % of control and the T/C (dose: 400.0 mg/kg/injection, schedule: Q04DX003 (ip), vehicle: saline with Tween-80) was 95 % of control.

Cc1ccc2nc3[nH]c(=O)[nH]c(=O)c3c(N)c2c1 was tested, and the T/C [4] was 101 % of control, the T/C [5] was 104 % of control and the T/C [6] was 102 % of control.

NC1=C(O)C(=O)C(c2cccc3ccccc23)O1 (centres undefined) was tested, and the T/C [1] was 98 % of control, the T/C [2] was 93 % of control and the T/C [3] was 88 % of control.

In the case of N#Cc1ccc(N)cc1C#N, the T/C (dose: 50.0 mg/kg/injection, schedule: Q01DX009 (ip), vehicle: Klucel (hydroxypropylcellulose) (HPC)) is reported as 94 % of control, the T/C (dose: 100.0 mg/kg/injection, schedule: Q01DX009 (ip), vehicle: Klucel (hydroxypropylcellulose) (HPC)) is reported as 94 % of control and the T/C (dose: 200.0 mg/kg/injection, schedule: Q01DX009 (ip), vehicle: Klucel (hydroxypropylcellulose) (HPC)) is reported as 96 % of control.

For CCO/C=C1N=C(/C=C/c2ccc(Cl)cc2)OC/1=O, the T/C [1] was 91 % of control and the T/C [2] was 90 % of control.

CCN1CCC[C@]2(C)[C@H]3CC[C@@]4(C)[C@@H](CC[C@]4(C)O)[C@@H]3CC[C@@H]12 was tested, and the T/C (dose: 12.5 mg/kg/injection, schedule: Q01DX005 (ip), vehicle: Klucel (hydroxypropylcellulose) (HPC)) was 101 % of control, the T/C (dose: 25.0 mg/kg/injection, schedule: Q01DX005 (ip), vehicle: Klucel (hydroxypropylcellulose) (HPC)) was 97 % of control and the T/C [4] was 93 % of control and 95 % of control.

CN(C)c1nc(O)cc(=O)[nH]1 was tested, and the T/C (dose: 50.0 mg/kg/injection, schedule: Q01DX009 (ip), vehicle: saline with Tween-80) was 106 % of control, the T/C [7] was 100 % of control and the T/C [8] was 89 % of control.

In the case of Cn1c(=O)c2c(c3ccccc31)OC(C)(C)C=C2, the T/C (dose: 50.0 mg/kg/injection, schedule: Q01DX005 (ip), vehicle: saline with Tween-80) is reported as 100 % of control, the T/C (dose: 100.0 mg/kg/injection, schedule: Q01DX005 (ip), vehicle: saline with Tween-80) is reported as 100 % of control and the T/C (dose: 200.0 mg/kg/injection, schedule: Q01DX005 (ip), vehicle: saline with Tween-80) is reported as 105 % of control.

For CCOC(=O)C1=C(N)OC(c2ccccc2)=C(C#N)C1c1ccc(C)cc1 (centres undefined), the T/C [4] was 110 % of control, the T/C [5] was 107 % of control and the T/C [6] was 100 % of control.

C[N+]1(C)CCC(Cc2ccccc2)CC1 was tested, and the T/C (dose: 6.25 mg/kg/injection, schedule: Q01DX005 (ip), vehicle: saline) was 101 % of control and the T/C (dose: 12.5 mg/kg/injection, schedule: Q01DX005 (ip), vehicle: saline) was 92 % of control.

O=C1CCNC(=O)N1CN1CCc2ccccc2C1 was tested, and the T/C (dose: 60.0 mg/kg/injection, schedule: Q01DX005 (ip), vehicle: Klucel (hydroxypropylcellulose) (HPC)) was 108 % of control, the T/C (dose: 120.0 mg/kg/injection, schedule: Q01DX005 (ip), vehicle: Klucel (hydroxypropylcellulose) (HPC)) was 99 % of control and the T/C (dose: 240.0 mg/kg/injection, schedule: Q01DX005 (ip), vehicle: Klucel (hydroxypropylcellulose) (HPC)) was 108 % of control.
